From US20210046106A1, “METHODS OF TREATING CANCER WITH ANDROGEN DEPRIVATION THERAPY IN COMBINATION WITH AN INHIBITOR OF THE SP1 TRANSCRIPTION FACTOR” (The Board of Trustees of the Leland Stanford Junior …, priority 2019, published 2021)

Test system: AR and PSA
Assay: NAC pretreatment and down-regulation of AR and PSA in LAPC-4 cells
Assay type: cell-based
Settings: 10 mmol/L NAC 24 h pretreatment

CC(=O)N[C@@H](CS)C(=O)O [NAC, N-acetylcysteine]
effect of NAC on methylseleninic acid (MSeA)-induced down-regulation of the AR and PSA (then 10 μmol/L MSeA 24 h): does not inhibit
effect of NAC on selenite-induced down-regulation of the AR and PSA (then selenite 24 h): inhibits
